Structures can show the parent of a compound that is named as a salt.
System: Proteus
Assay: Proteus background growth, plates inoculated with mixed culture of Proteus and Shigella
Type: cell-based
Settings: general statement
Excerpt: FIG. 6 is a photograph of two plates. The plate on the right is coated with the selective growth media N4 agar of the present invention. The plate on the left is coated with SS agar.
FIG. 7 presents a photograph of two agar coated plates. On the right is a plate coated with a prototype N4 formulation assessing the concentration of NIAPROOF®4 for the suppression of competing, background bacterial growth while allowing good growth of Shigella. The plate on the left is coated with XLD agar. Both plates were inoculated with a mixed culture of Proteus and Shigella organisms and allowed to grow overnight.

`CCCCC(CC)CCC(CC(C)C)OS(=O)(=O)O` (stereo not shown) [NIAPROOF®4, 7-ethyl-2-methyl-4-undecanol hydrogen sulfate] was tested, and the “Suppression of Proteus spp.” value was “very potent reagent in suppressing Proteus spp”.

— US7842496B2, “Advanced selective plating media” (University of Maryland, priority 2006, dated 2010)
